# From PMC10138721, “Investigation of the Compatibility between Warheads and Peptidomimetic Sequences of Protease Inhibitors—A Comprehensive Reactivity and Selectivity Study” (International Journal of Molecular Sciences, 2023)
# “Also recorded” adds a separate entry of the source. Read-outs that look alike come from different tables or passages of the source.
# Columns and labels:
# [1] = biological target: T1, proteasome β5-subunit (Homo sapiens, UniProt P20618+P28074); assay: Fluorometric inhibition assay, proteasome β5-subunit; assay type: biochemical
# T1 construct: purchased Enzo Life sciences
# [2] = biological target: T2, human cathepsin S (CatS) (Homo sapiens, UniProt P25774); assay: Fluorometric inhibition assay, cathepsin S; assay type: biochemical
# T2 construct: purchased Sigma Aldrich
# [3] = biological target: rhodesain (Trypanosoma brucei rhodesiense, UniProt Q95PM0); assay: Fluorometric inhibition assay, rhodesain; assay type: biochemical; conditions: for Ki: Rhodesain
# [4] = biological target: T3, urokinase-type plasminogen activator (uPA) (Homo sapiens, UniProt P00749); assay: Fluorometric inhibition assay, uPA; assay type: biochemical
# T3 construct: purchased Sigma Aldrich
# [5] = biological target: SARS-CoV-2 main protease (M^pro) (Severe acute respiratory syndrome coronavirus 2, UniProt P0DTD1); assay: Fluorometric (FRET) inhibition assay, SARS-CoV-2 M^pro; assay type: biochemical; conditions: initial screen at 20 µM, cut-off 80% inhibition
# [6] = Reactivity test of warhead probes with PhEtSH without base (NMR/LC-MS); assay type: physicochemical; conditions: non-basic conditions; for reactivity with PhEtSH (protonated thiol), in words: DMSO-d6, up to 240 min
# Description: (§1) To investigate the reactivity between the different warheads towards the three classes of proteases (serine, threonine and cysteine proteases), their behavior in model systems under the same reaction conditions (solvent, nucleophile and base) using either NMR or LC-MS analysis was investigated. We used reactivity probes with a Boc-L-Leu-(warhead) sequence. Leucin was chosen as a P1 amino acid to minimize influences of the side chain and due to synthetic accessibility. 2-Phenylethanethiol was used as a model nucleophile to mimic the thiol moiety of cysteine proteases, and sodium ethoxide was used as a serine/threonine replacement. DMSO-d6 was used as solvent. Under these conditions, the nucleophile is deprotonated, simulating the activated serine or threonine in the catalytic triad of serine and threonine proteases, while ethanol as protonated alcohol species turned out to be unreactive in preliminary test reactions. The reactivity tests using 2-phenylethanthiol were carried out in the presence and absence of triethylamine as a base. This allowed for a reactivity comparison of the warheads towards protonated and deprotonated nucleophilic thiol species. Generating a deprotonated thiol species in the presence of triethylamine simulates the deprotonated cysteine in the catalytic dyad of cysteine proteases. Scheme 8 illustrates the reaction of the reactivity assay with both model nucleophiles and the vinyl sulfone moiety 109 as an example.
# (§2) The reactivity tests of all Michael acceptors, 109, 110, 111 and 112, the α-ketobenzothiazole 115 and nitrile 117 were investigated using an NMR-based analysis method, while the β-lactam 108 reactivity was investigated via LC-MS, due to its lack of proton signals, which could be used for evaluation of the reactivity in the ^1H-NMR studies, and the irreversible reaction mechanism, which allowed the LC-MS analysis. […] Formation of the expected adducts with the nitrile 117 (PhEtSH/PhEtS^–/EtONa), the α-ketobenzothiazole 115 (PhEtSH/PhEtS^–) and the nitroalkene 111 (EtONa) could not be observed. This may have been due to the covalent reversible reaction mechanism of the nitrile and α-ketobenzothiazole and the overall difficult ionization of the specific compounds by an electron spray ionization mass spectrometer.
# (§3) Method A (NMR): ^1H-NMR spectra were recorded for the respective warhead and nucleophile mixture, before the addition of the nucleophile (0 min) and after 5, 30, 60, 120 and 240 min reaction time. For quantification, the double bond-signals (doublet/doublet of doublets, around 7.4–6.7 ppm) of the Michael acceptors were integrated relative to 1,3-dioxolane as an internal standard. The acetal CH2 signal of the internal standard at 5.3 ppm was used as a reference.
# (§4) The α-ketobenzothiazole 115 and nitrile 117 were similarly analyzed by ^13C-NMR. Therefore, the corresponding ^13C-leucin derivates were synthesized (Scheme 7). Quantifications of the reactions were carried out by using the integral of the carbonyl carbon atom signal at 195 ppm for the α-ketobenzothiazole and 120 ppm for the nitrile moiety. The reference signal of DMSO-d6 was set to 39.52 ppm.
# (§5) Method B (LC-MS): The reactivity of the β-lactam test compound 108 with the nucleophiles was investigated using an LC-MS-based method. To quantify the conversion, the AUCs were determined at 254 nm. In Figure 3, the UV spectra of the test reaction of the β-lactam 108 with EtONa are shown exemplarily.
# (§6) The β-lactam 108 (0.07 mmol, 1eq) was solved in DMSO-d6 (0.5 mL). The reaction was measured in time intervals before (0 min), 5, 30, 60, 120 and 240 mins after the addition of the corresponding nucleophile (PhEtSH/EtONa, 2 eq) in presence of Et3N (2 eq) or not. In case of PhEtSH as the nucleophile the reaction got quenched by pouring 10 µL of the reaction mixture into a solution of 25 mM TRIS (pH 7.00) and 27 mM maleimide in a 1:1 mixture of acetonitrile/H2O (990 µL). For the reaction with EtONa as the nucleophile, the reaction solution […]
# [7] = Reactivity test of warhead probes with PhEtSH + Et3N (NMR/LC-MS); assay type: physicochemical; conditions: for time to full conversion with PhEtSH + Et3N: DMSO-d6; for reactivity with PhEtSH + Et3N (deprotonated thiol), in words: DMSO-d6, up to 240 min
# Description: as §1, §2, §3, §4, §5, §6
# [8] = Reactivity test of warhead probes with EtONa (NMR/LC-MS); assay type: physicochemical; conditions: for reactivity with EtONa, in words: DMSO-d6, up to 240 min; for time to full conversion with EtONa: DMSO-d6
# Description: as §1, §2, §3, §4, §5, §6
# [9] = initial screen at 20 µM, cut-off 80% inhibition
# Chain of rhodesain (Q95PM0 entry or part of it): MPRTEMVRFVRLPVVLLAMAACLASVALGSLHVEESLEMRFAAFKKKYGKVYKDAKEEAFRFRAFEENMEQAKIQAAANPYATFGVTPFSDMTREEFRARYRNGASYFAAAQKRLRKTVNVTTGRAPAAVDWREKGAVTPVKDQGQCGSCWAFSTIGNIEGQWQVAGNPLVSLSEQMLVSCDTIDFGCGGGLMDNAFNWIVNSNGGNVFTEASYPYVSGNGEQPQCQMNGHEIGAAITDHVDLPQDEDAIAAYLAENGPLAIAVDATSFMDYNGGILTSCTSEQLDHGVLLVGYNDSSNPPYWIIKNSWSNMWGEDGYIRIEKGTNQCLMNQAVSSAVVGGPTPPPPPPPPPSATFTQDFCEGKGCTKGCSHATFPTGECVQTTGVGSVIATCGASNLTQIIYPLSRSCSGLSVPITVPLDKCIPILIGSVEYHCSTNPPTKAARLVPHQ
# T2 sequence (P25774 115-331): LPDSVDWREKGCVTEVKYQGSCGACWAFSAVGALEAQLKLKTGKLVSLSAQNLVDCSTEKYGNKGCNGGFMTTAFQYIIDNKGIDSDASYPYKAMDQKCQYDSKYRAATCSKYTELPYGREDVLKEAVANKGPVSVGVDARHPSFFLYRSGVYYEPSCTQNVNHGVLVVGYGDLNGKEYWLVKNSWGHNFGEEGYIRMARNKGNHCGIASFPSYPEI
structure (smiles),measurement,setting,value
CC(C)CC(C#N)NC(=O)C(Cc1ccccc1)NC(=O)c1cnccn1 (stereo not drawn) [compound 74],"inhibition of the proteasome β5-subunit, in words",[1],None and no inhibition and missing inhibition
same,Ki,"[2]; Ki, CatS",238 ± 23 nM
same,Ki,[3],560 ± 267 nM
CC(=O)NCC(=O)NC(C(=O)N[C@@H](C)C(=O)N[C@@H](CCCNC(=N)N)C(=O)c1nc2ccccc2s1)[C@H](C)O (stereo partly drawn) [compound 103],Ki,"[4]; Table S1; a) calculated from IC50 with Cheng–Prusoff, n.a. = not active (<80% inhibition at 20 µM), read-out: Ki, uPA",141 ± 27 nM
same,Ki,"[4]; calculated from Ki, –log10(Ki/M), read-out: pKi, uPA inhibition (converted)",126 nM
same,"activity against uPA, in words",[4]; [9],active; also recorded: displayed inhibitory activity
same,"inhibition of the proteasome β5-subunit, in words",[1]; [9],not inhibited
same,"activity against CatS, in words",[2]; [9],not inhibited; also recorded: not active at 20 µM
same,"activity against M^pro, in words",[5],not inhibited
same,"activity against rhodesain, in words",[3]; [9],not inhibited; also recorded: inactive
COC(=O)[C@H](C[C@@H]1CCNC1=O)NC(=O)OC(C)(C)C [compound 85],"inhibition of the proteasome β5-subunit, in words",[1]; [9],None
CC(C)CC(/C=C/S(=O)(=O)c1ccccc1)NC(=O)OC(C)(C)C (stereo not drawn) [compound 109],"reactivity with PhEtSH (protonated thiol), in words",[6],conversion was not observed; also recorded: missing reactivity
same,time to full conversion with PhEtSH + Et3N,[7],60 min
same,"reactivity with PhEtSH + Et3N (deprotonated thiol), in words",[7],high reactivity
same,conversion with EtONa,"[8]; DMSO-d6, after 240 min",70%
CC(C)CC(/C=C(\F)S(=O)(=O)c1ccccc1)NC(=O)OC(C)(C)C (stereo not drawn) [compound 110],"reactivity with PhEtSH (protonated thiol), in words",[6],conversion was not observed; also recorded: missing reactivity
same,maximum conversion with PhEtSH + Et3N,"[7]; DMSO-d6, after 240 min",86%
same,"reactivity with PhEtSH + Et3N (deprotonated thiol), in words",[7],high reactivity
same,"reactivity with EtONa, in words",[8],No conversion
CC(C)C[C@@H](C=C[N+](=O)[O-])NC(=O)[C@H](Cc1ccccc1)NC(=O)c1cnccn1 [compound 59],"inhibition of the proteasome β5-subunit, in words",[1],None
same,Ki,"[2]; Ki, CatS",619 ± 54 nM
same,Ki,[3],2 ± 5 nM
CC(C)C[C@@H](/C=C(\F)S(=O)(=O)c1ccccc1)NC(=O)[C@H](Cc1ccccc1)NC(=O)c1cnccn1 [compound 55],"inhibition of the proteasome β5-subunit, in words",[1],None
same,Ki,"[2]; Ki, CatS",934 ± 138 nM
same,Ki,"[2]; pKi, Cathepsin S inhibition",1000 nM
same,Ki,[3],462 ± 39 nM
CC(C)C[C@H](NC(=O)OC(C)(C)C)C(=O)N[C@H]1CN(c2ccccc2)C1=O [compound 108],"reactivity with PhEtSH (protonated thiol), in words",[6],conversion was not observed
same,"reactivity with PhEtSH + Et3N (deprotonated thiol), in words",[7],Every warhead except the β-lactam 108 and the nitrile 117 reacted
same,time to full conversion with EtONa,[8],60 min
same,"reactivity with EtONa, in words",[8],complete conversion; also recorded: strong reactivity
CC(C)C[C@H](NC(=O)[C@H](Cc1ccccc1)NC(=O)c1cnccn1)C(=O)N[C@H]1CN(c2ccccc2)C1=O [compound 72],"inhibition of the proteasome β5-subunit, in words",[1],None and did not inhibit
CC(C)CC(NC(=O)C(Cc1ccccc1)NC(=O)c1cnccn1)C(=O)c1nc2ccccc2s1 (stereo not drawn) [compound 62],"inhibition of the proteasome β5-subunit, in words",[1],None and no inhibition
CCOC(=O)/C=C/C(=O)[C@H](CC(C)C)NC(=O)[C@H](Cc1ccccc1)NC(=O)c1cnccn1 [compound 68],"inhibition of the proteasome β5-subunit, in words",[1],None
same,"activity against CatS, in words",[2],essentially inactive
same,Ki,[3],9 ± 1 nM
same,kinact,"[3]; read-out: kinact, Rhodesain",0.006 ± 0.001 s⁻¹
CCOC(=O)/C=C/C(=O)C(CC(C)C)NC(=O)OC(C)(C)C (stereo not drawn) [compound 112],conversion with PhEtSH,"[6]; DMSO-d6, after 240 min",92%
same,"reactivity with PhEtSH (protonated thiol), in words",[6],did indeed react; also recorded: high reactivity
same,time to full conversion with PhEtSH + Et3N,[7],5 min
same,"reactivity with PhEtSH + Et3N (deprotonated thiol), in words",[7],high reactivity
same,time to full conversion with EtONa,[8],5 min
same,"reactivity with EtONa, in words",[8],unspecific conversion
